Experimental findings from PubChem BioAssay (NCI) are described below.

Holding throughout (assay): NCI anticancer screen, dose series, 48 h
In test [1] the test system is KM12 colon.
The subject of test [2] is A549 NSCLC.
The subject of test [3] is M14 melanoma.
Test [4] concerns NCI-H226 lung.
Test [5] deals with MALME-3M melanoma.
Test [6] relates to SR leukemia.
Test [7] relates to HCT-116 colon.
The subject of test [8] is UACC-257 melanoma.
Test [9] has as its system TK-10 renal.
Test [10] deals with T-47D breast.

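Interpolation was linear, between the two tested concentrations surrounding the appropriate level; five concentrations were tested over 48 hours in 96-well plates. GI50 = concentration required for 50% inhibition of growth. The concentration for full growth arrest is given as TGI.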

With `[O]=[V]([OH])([OH])[OH]`, the GI50 in test [1] was > 100 µM; in test [2] it was > 100 µM; in test [3] it was > 100 µM; in test [4], > 100 µM; in [5], > 100 µM; in test [6], 36.3 µM. The GI50 in [7], in test [8], in test [9] and in test [10] was > 100 µM in each case. Also, the TGI in test [1], in test [2], in test [3], in [4], in [5] and in test [6] was > 100 µM throughout. The TGI in test [7], in [8], in [9] and in [10] was > 100 µM throughout.
With `Nc1nccc(-c2c(-c3ccc(F)cc3)nn3cc(C(F)(F)F)ccc23)n1`, the GI50 in test [1], in test [2], in test [3], in test [4], in test [5] and in test [6] was > 25 µM each time. Besides, the GI50 in [7], in test [8], in [9] and in [10] was > 25 µM throughout. In addition, the TGI in test [1], in test [2], in test [3], in test [4], in [5] and in [6] was > 25 µM in each case. In addition, the TGI in test [7], in [8], in [9] and in test [10] was > 25 µM each time.
`O=C(c1cccs1)c1c(C(F)(F)F)n([O-])c2cc(Cl)c(Cl)cc2[n+]1=O`: the GI50 in test [1] was 0.517 µM; in [2], 2.72 µM; in test [3] it was 0.906 µM; in [4] it was 1.96 µM; in [5], 1.23 µM; in test [6], < 0.0214 µM. In addition, the GI50 in test [7] is 0.429 µM; in [8] it was 1.86 µM; in test [9], 1.55 µM; in [10], 2.18 µM. The TGI amounted to 1.08 µM in [1]; 5.85 µM in [2]; 2.45 µM in test [3]; 3.79 µM in test [4]; 2.65 µM in test [5]; 0.913 µM in [7]. Also, the TGI in [8] came out at 3.85 µM; in [9] it was 2.95 µM; in [10] it was 4.94 µM.
`CN(C)c1ccc(-c2cc(-c3ccc(Nc4nc(Nc5ccc(Cl)cc5)nc(Nc5ccc(Cl)cc5)n4)cc3)nc(N)c2C#N)cc1`: the GI50 in [1] is 10.3 µM; in [2], 13.9 µM; in [3] it was 18.3 µM; in test [4], 3.58 µM; in test [5] it was 69.4 µM; in test [6], 1.32 µM. In addition, the GI50 in test [7] was 4.99 µM; in test [8] it was 12.3 µM; in test [9], 53.8 µM; in test [10], 7.59 µM. The TGI is > 100 µM in [1]; > 100 µM in test [2]; > 100 µM in test [3]; 24.4 µM in test [4]; > 100 µM in [5]; 9.83 µM in test [6]. Also, the TGI in test [7], in test [8], in [9] and in test [10] was > 100 µM each time.
In the case of `CCCCCCCCCCCC[C@@H](O)[C@H]1CC[C@H]([C@H](O)CC[C@H](O)[C@@H]2CC[C@@H](CCCCCCCC3=C[C@H](C)OC3=O)O2)O1`, the GI50 in [1] is 4.26 µM; in test [2], 2.2 µM; in [3], 4.99 µM; in test [6], > 50 µM; in test [7], 1.7 µM; in test [8], 0.152 µM. Also, the values for the GI50 in test [9] and in [10] were 1.24 µM and 4.45 µM, respectively. Besides, the TGI in test [1], in [2], in test [3], in test [4], in test [5] and in [6] was > 50 µM throughout. The TGI in [7], in test [9] and in [10] was > 50 µM in each case.
As for `COCCN(CCOC)c1nc(-c2ccccc2)nc2ccccc12`, the GI50 in test [1] was 18.6 µM; in test [2], 30.1 µM; in test [3] it was 13.9 µM; in [4], 23.6 µM; in test [5], 20.2 µM; in test [6] it was 34.4 µM. Besides, the GI50 is 24.5 µM in [7], 17.7 µM in test [8], 30.7 µM in test [9] and 26.9 µM in [10]. Moreover, the TGI in test [1] is 47.2 µM; in test [2], > 100 µM; in test [3] it was 56.6 µM; in test [4], 54 µM; in test [5] it was 39.9 µM; in [6] it was > 100 µM. For the same molecule, the TGI in test [7] is > 100 µM; in [8], 36.6 µM; in [9], 78.4 µM; in test [10], > 100 µM.
In the case of `OCCCCC#Cc1ccccc1C#Cc1cccc(C(F)(F)F)c1`, the GI50 is 16.2 µM in test [1]; 15.1 µM in test [2]; 21.5 µM in test [3]; 18.3 µM in test [4]; 26 µM in [5]; 18.3 µM in test [6]. For the same molecule, the GI50 is 20.9 µM in test [7], 16.7 µM in [8], 16.9 µM in [9] and 22 µM in test [10]. The TGI in [1] is 31.3 µM; in [2], 28.6 µM; in test [3], 50.5 µM; in test [4] it was 34 µM; in test [5] it was 48.5 µM; in test [6], > 100 µM. Also, the TGI in test [7] stood at 49.8 µM; in test [8], 31.8 µM; in [9], 32.2 µM; in [10], 44.5 µM.
With `CCCCCCCCCCCCCCNC(=O)Nc1ccc(Cl)c(Cl)c1`, the GI50 was 3 µM in test [1]; 3.34 µM in [2]; 2.89 µM in test [3]; 3.21 µM in test [4]; 1.39 µM in test [5]; 2.37 µM in [7]. Further, the GI50 in test [8] is 2.78 µM; in test [9], 2.34 µM; in test [10] it was 3.17 µM. In addition, the TGI in [1] is 8.44 µM; in test [2], > 100 µM; in test [3], > 44.3 µM; in test [4] it was > 100 µM; in test [5], 4.59 µM; in [6], > 23.6 µM. The TGI in test [7] is > 23.3 µM; in [8], 11.3 µM; in test [9], 7.4 µM; in test [10], > 30 µM.
With `COCCN(Cc1ccc(F)cc1)c1ccc(CO)c(Cl)c1`, the GI50 in test [1] is 33.8 µM; in [2], 10.4 µM; in test [3], 38.9 µM; in test [4] it was 0.152 µM; in test [5], > 57.1 µM; in test [6], 47.9 µM. Also, the GI50 is 0.821 µM in test [7], 0.492 µM in [8], 0.271 µM in [9] and 0.748 µM in test [10]. Further, the TGI in test [1] was > 100 µM; in [2], > 79.5 µM; in test [3] it was > 100 µM; in test [4] it was 0.353 µM; in test [5], > 100 µM; in test [6], > 100 µM. The TGI in test [7] is > 56.5 µM; in [8], 2.5 µM; in [9] it was 1.66 µM; in test [10], 7.04 µM.
